Laboratory results: PubChem BioAssay (NCI)
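96-well plates; 48 h exposure; 5 concentrations. Endpoints by linear interpolation between flanking doses. Not reached: highest tested concentration assigned. TGI marks complete inhibition of growth.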

What was measured:
Assay in all cases: inhibition of tumour cell growth, NCI panel, 48 h
[1] = test system: XF 498 CNS
[2] = test system: DMS 273 small cell lung
[3] = test system: HL-60(TB) leukemia
[4] = test system: SK-MEL-2 melanoma
[5] = test system: HCC-2998 colon
[6] = test system: RXF 393 renal
[7] = test system: HOP-62 NSCLC
[8] = test system: SK-OV-3 ovarian
[9] = test system: SNB-78 CNS
[10] = test system: OVCAR-5 ovarian
[11] = test system: RPMI-8226 leukemia
[12] = test system: KM20L2 colon

**Q.** How did the TGI [1] turn out when `CCCCN(CCCC)C(=O)C(=O)C(C(=O)C(=O)OC)c1nc2ccccc2o1` (configuration not stated) was run?
**A.** > 100 µM

**Q.** What about the TGI [2] of the same molecule?
**A.** > 100 µM

**Q.** What about the TGI [3] of the same molecule?
**A.** > 100 µM

**Q.** And the TGI [4]?
**A.** > 100 µM

**Q.** What about the TGI [5] of the same molecule?
**A.** > 100 µM

**Q.** What about the TGI [6] of the same molecule?
**A.** 99 µM

**Q.** What about the TGI [7] of the same molecule?
**A.** > 100 µM

**Q.** And the TGI [8]?
**A.** > 100 µM

**Q.** And the TGI [9]?
**A.** > 100 µM

**Q.** And the TGI [10]?
**A.** > 100 µM

**Q.** Which results are given for `CN1C(=O)CNS1(=O)=O`?
**A.** TGI [1]: > 100 µM; TGI [11]: > 100 µM; TGI [2]: > 100 µM; TGI [3]: > 100 µM; TGI [4]: > 100 µM; TGI [5]: > 100 µM; TGI [6]: > 100 µM; TGI [7]: > 100 µM; TGI [8]: > 100 µM; TGI [9]: > 100 µM; TGI [10]: > 100 µM

**Q.** Which results are given for `N#CCC(=O)N/N=C(/C(=O)Nc1ccccc1)C1C(=O)N(c2ccccc2)N=C1N` (configuration not stated)?
**A.** TGI [1]: > 100 µM; TGI [11]: > 100 µM; TGI [12]: > 100 µM; TGI [2]: > 100 µM; TGI [3]: > 100 µM; TGI [4]: > 100 µM; TGI [5]: > 100 µM; TGI [6]: > 100 µM; TGI [7]: > 100 µM; TGI [8]: > 100 µM; TGI [9]: > 100 µM; TGI [10]: > 100 µM

**Q.** What does the source list for `Cn1cnc([N+](=O)[O-])c1Sc1nccn1-c1ccccc1`?
**A.** TGI [1]: > 100 µM; TGI [11]: > 100 µM; TGI [12]: > 100 µM; TGI [2]: > 100 µM; TGI [4]: 99.3 µM; TGI [5]: > 100 µM; TGI [7]: > 100 µM; TGI [8]: > 100 µM; TGI [9]: > 100 µM; TGI [10]: > 100 µM

**Q.** `COC(=O)c1oc([N+](=O)[O-])c(-c2ccccc2)c1-c1ccccc1` was tested. Which TGI [1] did it give?
**A.** > 100 µM

**Q.** And the TGI [11]?
**A.** > 100 µM

**Q.** What about the TGI [12] of the same molecule?
**A.** > 100 µM

**Q.** And the TGI [2]?
**A.** > 100 µM

**Q.** And the TGI [4]?
**A.** > 100 µM

**Q.** And the TGI [5]?
**A.** > 100 µM

**Q.** What about the TGI [7] of the same molecule?
**A.** > 100 µM

**Q.** What about the TGI [8] of the same molecule?
**A.** > 100 µM

**Q.** And the TGI [9]?
**A.** > 100 µM

**Q.** What about the TGI [10] of the same molecule?
**A.** > 100 µM

**Q.** With `O=[N+]([O-])c1cccc(C=NC23CC4CC(CC(C4)C2)C3)c1` as the molecule, how does the TGI [1] read?
**A.** > 100 µM

**Q.** What about the TGI [12] of the same molecule?
**A.** > 100 µM

**Q.** And the TGI [2]?
**A.** > 100 µM

**Q.** And the TGI [3]?
**A.** 65.6 µM

**Q.** What about the TGI [4] of the same molecule?
**A.** > 100 µM

**Q.** What about the TGI [5] of the same molecule?
**A.** > 100 µM

**Q.** And the TGI [6]?
**A.** > 100 µM

**Q.** And the TGI [7]?
**A.** > 100 µM

**Q.** And the TGI [8]?
**A.** > 100 µM

**Q.** And the TGI [9]?
**A.** > 100 µM

**Q.** What about the TGI [10] of the same molecule?
**A.** > 100 µM

**Q.** Which TGI [1] does the source give for `CCOc1ccc(N=C2NC(=O)C(CC(=O)Nc3ccc(Cl)cc3Cl)S2)cc1` (configuration not stated) here?
**A.** > 100 µM

**Q.** And the TGI [11]?
**A.** > 100 µM

**Q.** What about the TGI [12] of the same molecule?
**A.** > 100 µM

**Q.** What about the TGI [2] of the same molecule?
**A.** > 100 µM

**Q.** And the TGI [4]?
**A.** > 100 µM

**Q.** And the TGI [5]?
**A.** > 100 µM

**Q.** What about the TGI [7] of the same molecule?
**A.** > 100 µM

**Q.** What about the TGI [8] of the same molecule?
**A.** > 100 µM

**Q.** What about the TGI [9] of the same molecule?
**A.** > 100 µM

**Q.** What about the TGI [10] of the same molecule?
**A.** > 100 µM

**Q.** Which TGI [1] does the source give for `COC1OC(CO)C(O)C(NC(=O)N(C)N=O)C1O` (configuration not stated) here?
**A.** > 100 µM

**Q.** What about the TGI [11] of the same molecule?
**A.** > 100 µM

**Q.** What about the TGI [12] of the same molecule?
**A.** > 100 µM

**Q.** And the TGI [2]?
**A.** > 100 µM

**Q.** And the TGI [3]?
**A.** > 100 µM

**Q.** What about the TGI [4] of the same molecule?
**A.** > 100 µM

**Q.** And the TGI [5]?
**A.** > 100 µM

**Q.** And the TGI [6]?
**A.** > 100 µM

**Q.** And the TGI [8]?
**A.** > 100 µM

**Q.** What about the TGI [9] of the same molecule?
**A.** > 100 µM

**Q.** What does the source list for `Cc1cc2c(=O)cc(-c3ccc(O)cc3)oc2c(C(=O)O)c1C`?
**A.** TGI [1]: > 100 µM; TGI [11]: > 100 µM; TGI [12]: > 100 µM; TGI [2]: > 100 µM; TGI [3]: > 100 µM; TGI [4]: > 100 µM; TGI [5]: > 100 µM; TGI [7]: > 100 µM; TGI [8]: > 100 µM; TGI [9]: > 100 µM; TGI [10]: > 100 µM

**Q.** How did the TGI [1] turn out when `CC(=O)Nc1ccc(S(=O)(=O)N/N=C/c2cc(I)cc([N+](=O)[O-])c2O)cc1` was run?
**A.** 74.6 µM

**Q.** And the TGI [11]?
**A.** > 100 µM

**Q.** What about the TGI [12] of the same molecule?
**A.** > 100 µM

**Q.** What about the TGI [2] of the same molecule?
**A.** > 100 µM

**Q.** And the TGI [3]?
**A.** > 100 µM

**Q.** And the TGI [4]?
**A.** > 100 µM

**Q.** And the TGI [5]?
**A.** > 100 µM

**Q.** What about the TGI [6] of the same molecule?
**A.** 85.2 µM

**Q.** What about the TGI [8] of the same molecule?
**A.** > 100 µM

**Q.** And the TGI [9]?
**A.** > 100 µM

**Q.** And the TGI [10]?
**A.** > 100 µM

**Q.** How did the TGI [1] turn out when `O=C(Cc1c(C(=O)Nc2ccccc2)sc(C(=O)Nc2ccccc2)c1CC(=O)Nc1ccccc1)Nc1ccccc1` was run?
**A.** > 100 µM

**Q.** What about the TGI [11] of the same molecule?
**A.** > 100 µM

**Q.** And the TGI [12]?
**A.** > 100 µM

**Q.** What about the TGI [2] of the same molecule?
**A.** > 100 µM

**Q.** What about the TGI [3] of the same molecule?
**A.** > 100 µM

**Q.** What about the TGI [5] of the same molecule?
**A.** > 100 µM

**Q.** And the TGI [6]?
**A.** > 100 µM

**Q.** What about the TGI [7] of the same molecule?
**A.** > 100 µM

**Q.** What about the TGI [8] of the same molecule?
**A.** > 100 µM

**Q.** What about the TGI [9] of the same molecule?
**A.** > 100 µM

**Q.** And the TGI [10]?
**A.** > 100 µM

**Q.** How did the TGI [1] turn out when `OCC(O)COc1ccc(F)cc1` (configuration not stated) was run?
**A.** > 100 µM

**Q.** And the TGI [12]?
**A.** > 100 µM

**Q.** And the TGI [2]?
**A.** > 100 µM

**Q.** And the TGI [3]?
**A.** > 100 µM

**Q.** And the TGI [4]?
**A.** > 100 µM

**Q.** What about the TGI [5] of the same molecule?
**A.** > 100 µM

**Q.** What about the TGI [6] of the same molecule?
**A.** > 100 µM

**Q.** What about the TGI [7] of the same molecule?
**A.** > 100 µM

**Q.** And the TGI [8]?
**A.** > 100 µM

**Q.** What about the TGI [9] of the same molecule?
**A.** > 100 µM

**Q.** What about the TGI [10] of the same molecule?
**A.** > 100 µM

**Q.** How did the TGI [1] turn out when `CC1=CC=C2C(C)(C)CC[C@@H]3OC(=O)[C@H]1[C@]23C` was run?
**A.** > 100 µM

**Q.** What about the TGI [12] of the same molecule?
**A.** > 100 µM

**Q.** And the TGI [2]?
**A.** > 100 µM

**Q.** What about the TGI [3] of the same molecule?
**A.** > 100 µM

**Q.** What about the TGI [4] of the same molecule?
**A.** > 100 µM

**Q.** What about the TGI [5] of the same molecule?
**A.** > 100 µM

**Q.** What about the TGI [6] of the same molecule?
**A.** > 100 µM

**Q.** And the TGI [7]?
**A.** > 100 µM

**Q.** And the TGI [8]?
**A.** > 100 µM

**Q.** And the TGI [9]?
**A.** > 100 µM

**Q.** And the TGI [10]?
**A.** > 100 µM

**Q.** For `Cc1ccc(S(=O)OC2c3ccccc3Cc3ccccc32)cc1` (configuration not stated), which TGI [1] is on record?
**A.** 30.3 µM

**Q.** And the TGI [11]?
**A.** > 100 µM

**Q.** What about the TGI [12] of the same molecule?
**A.** 47.2 µM

**Q.** What about the TGI [2] of the same molecule?
**A.** 33 µM

**Q.** What about the TGI [3] of the same molecule?
**A.** 44 µM

**Q.** What about the TGI [5] of the same molecule?
**A.** 33.8 µM

**Q.** And the TGI [6]?
**A.** 26.8 µM

**Q.** What about the TGI [7] of the same molecule?
**A.** 34.3 µM

**Q.** And the TGI [8]?
**A.** 41.9 µM

**Q.** What about the TGI [9] of the same molecule?
**A.** 46.1 µM

**Q.** And the TGI [10]?
**A.** 31.7 µM

**Q.** What does the source list for `O=C(O)COc1ccc2c3c1C(=O)CCC3CO2` (configuration not stated)?
**A.** TGI [1]: > 100 µM; TGI [11]: > 100 µM; TGI [12]: > 100 µM; TGI [2]: > 100 µM; TGI [3]: > 100 µM; TGI [4]: > 100 µM; TGI [5]: > 100 µM; TGI [7]: > 100 µM; TGI [8]: > 100 µM; TGI [9]: > 100 µM; TGI [10]: > 100 µM

**Q.** How did the TGI [1] turn out when `CNC(=O)N(CCCC(NC(C)=O)C(=O)NCc1ccccc1)Cc1ccccc1` (configuration not stated) was run?
**A.** > 100 µM

**Q.** And the TGI [11]?
**A.** > 100 µM

**Q.** What about the TGI [12] of the same molecule?
**A.** > 100 µM

**Q.** And the TGI [2]?
**A.** > 100 µM

**Q.** And the TGI [4]?
**A.** > 100 µM

**Q.** What about the TGI [5] of the same molecule?
**A.** > 100 µM

**Q.** What about the TGI [6] of the same molecule?
**A.** > 100 µM

**Q.** And the TGI [7]?
**A.** > 100 µM

**Q.** And the TGI [8]?
**A.** > 100 µM

**Q.** What about the TGI [9] of the same molecule?
**A.** > 100 µM

**Q.** And the TGI [10]?
**A.** > 100 µM
